Results reported in publication PMC3072374, “Evolution of Vertebrate Transient Receptor Potential Vanilloid 3 Channels: Opposite Temperature Sensitivity between Mammals and Western Clawed Frogs” (PLoS Genetics, 2011).
Blank lines part the entries; values can stand above or below the molecule they belong to.

How the values were obtained:
[1] = biological target: T1, western clawed frog TRPV3 (Xenopus tropicalis, UniProt A0A7D9NMJ5); assay: two-electrode voltage clamp in Xenopus laevis oocytes, dose-response; format: cell-based
T1 construct: full-length native channel, 773 residues, cDNA cloned from toe RNA into pGEMHE; cRNA injected into Xenopus laevis oocytes; homotetramer (known biology)
T1 sequence (A0A7D9NMJ5 1-773): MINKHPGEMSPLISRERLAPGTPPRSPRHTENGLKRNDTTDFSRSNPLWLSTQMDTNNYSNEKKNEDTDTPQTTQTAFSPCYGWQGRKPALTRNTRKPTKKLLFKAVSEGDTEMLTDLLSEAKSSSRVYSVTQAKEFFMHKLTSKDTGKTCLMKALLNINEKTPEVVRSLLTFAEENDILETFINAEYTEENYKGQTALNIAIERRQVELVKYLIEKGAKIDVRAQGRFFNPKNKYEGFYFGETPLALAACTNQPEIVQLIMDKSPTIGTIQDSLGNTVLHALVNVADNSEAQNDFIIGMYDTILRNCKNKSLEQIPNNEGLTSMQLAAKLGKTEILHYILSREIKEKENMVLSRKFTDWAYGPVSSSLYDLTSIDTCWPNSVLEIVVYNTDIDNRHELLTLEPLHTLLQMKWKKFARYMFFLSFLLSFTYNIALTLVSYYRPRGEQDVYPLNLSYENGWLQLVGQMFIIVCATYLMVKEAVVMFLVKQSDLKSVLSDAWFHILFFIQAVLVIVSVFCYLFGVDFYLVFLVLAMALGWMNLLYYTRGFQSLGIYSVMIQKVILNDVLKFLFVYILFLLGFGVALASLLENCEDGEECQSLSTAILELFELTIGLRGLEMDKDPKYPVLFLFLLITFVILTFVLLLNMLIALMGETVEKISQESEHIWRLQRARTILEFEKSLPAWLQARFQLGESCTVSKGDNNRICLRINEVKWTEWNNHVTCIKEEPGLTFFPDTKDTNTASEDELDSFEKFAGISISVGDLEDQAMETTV

[2] = biological target: T2, mouse TRPV3 (Mus musculus, UniProt Q8K424); assay: two-electrode voltage clamp in Xenopus laevis oocytes; format: cell-based; conditions: agonist
T2 construct: full-length channel from pcDNA3 subcloned into pOX+; cRNA injected into Xenopus laevis oocytes; homotetramer (known biology)
T2 sequence (Q8K424 1-791): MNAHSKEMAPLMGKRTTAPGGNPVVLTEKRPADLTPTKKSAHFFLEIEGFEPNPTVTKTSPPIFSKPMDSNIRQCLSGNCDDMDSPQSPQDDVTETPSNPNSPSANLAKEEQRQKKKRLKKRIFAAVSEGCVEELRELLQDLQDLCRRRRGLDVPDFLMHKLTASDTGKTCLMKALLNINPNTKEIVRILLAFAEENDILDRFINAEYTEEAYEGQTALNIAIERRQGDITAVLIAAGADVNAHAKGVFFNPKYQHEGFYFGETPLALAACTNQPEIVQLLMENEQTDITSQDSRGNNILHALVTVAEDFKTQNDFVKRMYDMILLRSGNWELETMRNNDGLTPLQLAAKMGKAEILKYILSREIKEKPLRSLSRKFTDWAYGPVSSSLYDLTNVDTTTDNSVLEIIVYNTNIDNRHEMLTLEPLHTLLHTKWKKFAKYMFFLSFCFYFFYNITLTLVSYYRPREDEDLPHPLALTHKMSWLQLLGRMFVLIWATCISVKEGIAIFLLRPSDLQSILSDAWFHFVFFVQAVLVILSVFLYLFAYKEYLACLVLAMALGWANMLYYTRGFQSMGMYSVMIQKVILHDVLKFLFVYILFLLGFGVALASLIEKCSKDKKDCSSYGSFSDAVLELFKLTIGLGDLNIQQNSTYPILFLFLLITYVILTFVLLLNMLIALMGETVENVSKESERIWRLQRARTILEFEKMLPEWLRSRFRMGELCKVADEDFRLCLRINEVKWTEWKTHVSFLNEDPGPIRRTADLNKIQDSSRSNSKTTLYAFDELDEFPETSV

EC50 [1]: 540 ± 240 µM
Compound: NCCOB(c1ccccc1)c1ccccc1 [2-APB]

Compound: CC12CCC(CC1)C(C)(C)O2 [eucalyptol]
activation ([2]; 10 mM eucalyptol): well known activators of mammalian TRPV3 (Figure 5F and 5G, Right)

Compound: CC12CCC(CC1=O)C2(C)C (stereo not drawn) [camphor]
activation ([2]; 8 mM camphor): well known activators of mammalian TRPV3 (Figure 5F and 5G, Right)
